By IC50 is commonly meant the concentration needed to halve the response being measured. Low readings indicate greater potency in that assay, high ones weaker potency in that assay.

The subject of test [1] is Mus musculus. Put plainly: Improvement of social recognition memory in juvenile unfamiliar male C57Bl6 mouse assessed as reduction in exploration time at 0.1 nmol/uL, ICV administered post acquisition phase and measured after 48 hrs at retention test phase. The test is classed as functional, organism-based.
The subject of test [2] is Mus musculus. Put plainly: Improvement of social recognition memory in juvenile unfamiliar male C57Bl6 mouse assessed as reduction in exploration time by measuring discrimination index at 0.1 nmol/uL, ICV administered post acquisition phase and measured after 48 hrs at retention test phase. The test is classed as functional, organism-based.
In test [3] the target is Carbonic anhydrase 4 (Homo sapiens) (UniProt P22748).
Chain of Carbonic anhydrase 4 (Homo sapiens) (P22748 whole entry): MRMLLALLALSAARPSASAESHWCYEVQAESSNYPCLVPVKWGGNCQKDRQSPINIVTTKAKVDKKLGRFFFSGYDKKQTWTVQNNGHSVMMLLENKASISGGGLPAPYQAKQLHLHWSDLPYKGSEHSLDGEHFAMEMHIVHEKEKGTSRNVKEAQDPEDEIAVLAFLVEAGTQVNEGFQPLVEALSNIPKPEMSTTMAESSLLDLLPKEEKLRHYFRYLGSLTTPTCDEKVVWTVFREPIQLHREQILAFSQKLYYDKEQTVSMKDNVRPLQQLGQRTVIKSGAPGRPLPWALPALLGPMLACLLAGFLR
Description: Binding affinity to human carbonic anhydrase 4 assessed as activation constant by phenol red dye based stopped-flow method
Test [4] deals with Carbonic anhydrase 2 (Homo sapiens) (UniProt P00918).
Description: Binding affinity to human carbonic anhydrase 2 assessed as activation constant by phenol red dye based stopped-flow method
In test [5] the test system is Mus musculus. Put plainly: Improvement of social recognition memory in juvenile familiar male C57Bl6 mouse assessed as reduction in exploration time at 0.5 to 25 nmol/uL, ICV administered post acquisition phase and measured after 48 hrs at retention test phase. The test is classed as functional, organism-based. The settings on record: dose 0.5-25 nmol/uL.
Another test has as its target Acetylcholinesterase (Electrophorus electricus, UniProt O42275).
Test [6] concerns Mus musculus. Put plainly: Improvement of social recognition memory in juvenile familiar male C57Bl6 mouse assessed as reduction in exploration time at 0.1 nmol/uL, ICV administered post acquisition phase and measured after 48 hrs at retention test phase. The test is classed as functional, organism-based.
Test [7] has as its target Carbonic anhydrase 5B, mitochondrial (Homo sapiens) (UniProt Q9Y2D0).
Description: Binding affinity to human carbonic anhydrase 5B assessed as activation constant by phenol red dye based stopped-flow method
Test [8] relates to Mus musculus. In words: Improvement of social recognition memory in juvenile familiar male C57Bl6 mouse assessed as reduction in exploration time by measuring discrimination index at 0.1 nmol/uL, ICV administered post acquisition phase and measured after 48 hrs at retention test phase. The test is classed as functional, organism-based.
Test [9] concerns the target Carbonic anhydrase 7 (Homo sapiens) (UniProt P43166).
Description: Binding affinity to human carbonic anhydrase 7 assessed as activation constant by phenol red dye based stopped-flow method
The subject of test [10] is Mus musculus. Put plainly: Improvement of social recognition memory in juvenile unfamiliar male C57Bl6 mouse assessed as reduction in exploration time at 0.5 to 25 nmol/uL, ICV administered post acquisition phase and measured after 48 hrs at retention test phase. The test is classed as functional, organism-based. Conditions: dose 0.5-25 nmol/uL.
For test [11], the target named is Carbonic anhydrase 1 (Homo sapiens) (UniProt P00915).
Chain of Carbonic anhydrase 1 (Homo sapiens) (P00915 2-261 limits assumed): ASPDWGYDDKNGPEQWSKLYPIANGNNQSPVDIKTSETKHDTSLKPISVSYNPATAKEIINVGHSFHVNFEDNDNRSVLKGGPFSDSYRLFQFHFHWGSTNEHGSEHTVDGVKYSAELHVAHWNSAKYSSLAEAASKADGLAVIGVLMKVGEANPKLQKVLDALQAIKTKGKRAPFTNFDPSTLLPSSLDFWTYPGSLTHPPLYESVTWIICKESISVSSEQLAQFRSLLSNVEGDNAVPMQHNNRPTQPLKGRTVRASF
Description: Binding affinity to human carbonic anhydrase 1 assessed as activation constant by phenol red dye based stopped-flow method
Another test has as its target Cholinesterase (Equus caballus, UniProt P81908).
For test [12], the system named is Mus musculus. Put plainly: Improvement of social recognition memory in juvenile familiar male C57Bl6 mouse assessed as discrimination index at 50 nmol/uL, ICV administered post acquisition phase and measured after 48 hrs at retention test phase (reference value: -0.07+/-0.0124). The test is classed as functional.
Test [13] concerns Mus musculus. Put plainly: Improvement of social recognition memory in juvenile familiar male C57Bl6 mouse assessed as reduction in exploration time at 5 nmol/uL, ICV administered post acquisition phase and measured after 48 hrs at retention test phase in presence of tacrine. The test is classed as functional, organism-based.
For test [14], the system named is Mus musculus. In words: Improvement of social recognition memory in juvenile familiar male C57Bl6 mouse assessed as discrimination index at 25 nmol/uL, ICV administered post acquisition phase and measured after 48 hrs at retention test phase in presence of tacrine (reference value: -0.07+/-0.0124). The test is classed as functional.
Test [15] relates to Mus musculus. Put plainly: Improvement of social recognition memory in juvenile familiar male C57Bl6 mouse assessed as reduction in exploration time at 25 nmol/uL, ICV administered post acquisition phase and measured after 48 hrs at retention test phase in presence of tacrine. The test is classed as functional, organism-based.
The subject of test [16] is Mus musculus. Put plainly: Improvement of social recognition memory in juvenile unfamiliar male C57Bl6 mouse assessed as reduction in exploration time at 5 nmol/uL, ICV administered post acquisition phase and measured after 48 hrs at retention test phase in presence of tacrine. The test is classed as functional, organism-based.
Test [17] deals with Mus musculus. In words: Improvement of social recognition memory in juvenile unfamiliar male C57Bl6 mouse assessed as reduction in exploration time at 25 nmol/uL, ICV administered post acquisition phase and measured after 48 hrs at retention test phase in presence of tacrine. The test is classed as functional, organism-based.
Test [18] relates to Mus musculus. Put plainly: Improvement of social recognition memory in juvenile familiar male C57Bl6 mouse assessed as reduction in exploration time at 0.5 nmol/uL, ICV administered post acquisition phase and measured after 48 hrs at retention test phase. The test is classed as functional, organism-based.
The test system of test [19] is Mus musculus. In words: Improvement of social recognition memory in juvenile unfamiliar male C57Bl6 mouse assessed as reduction in exploration time at 0.5 nmol/uL, ICV administered post acquisition phase and measured after 48 hrs at retention test phase. The test is classed as functional, organism-based.
Test [20] deals with Mus musculus. Put plainly: Improvement of social recognition memory in juvenile unfamiliar male C57Bl6 mouse assessed as reduction in exploration time by measuring discrimination index at 0.5 nmol/uL, ICV administered post acquisition phase and measured after 48 hrs at retention test phase. The test is classed as functional, organism-based.
Test [21] relates to Mus musculus. Put plainly: Improvement of social recognition memory in juvenile familiar male C57Bl6 mouse assessed as reduction in exploration time by measuring discrimination index at 0.5 nmol/uL, ICV administered post acquisition phase and measured after 48 hrs at retention test phase. The test is classed as functional, organism-based.

The source made the active and inactive calls. The rule behind the calls is not given here. Bounds are passed on as bounds.

Chain of Carbonic anhydrase 7 (Homo sapiens) (P43166 whole entry): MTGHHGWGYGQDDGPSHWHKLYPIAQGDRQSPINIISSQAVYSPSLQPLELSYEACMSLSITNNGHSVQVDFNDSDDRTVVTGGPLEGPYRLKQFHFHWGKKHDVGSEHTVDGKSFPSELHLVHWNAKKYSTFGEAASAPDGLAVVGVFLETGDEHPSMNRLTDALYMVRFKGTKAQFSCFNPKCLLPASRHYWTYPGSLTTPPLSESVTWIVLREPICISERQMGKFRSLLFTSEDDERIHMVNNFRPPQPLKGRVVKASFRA
Chain of Cholinesterase (P81908 whole entry): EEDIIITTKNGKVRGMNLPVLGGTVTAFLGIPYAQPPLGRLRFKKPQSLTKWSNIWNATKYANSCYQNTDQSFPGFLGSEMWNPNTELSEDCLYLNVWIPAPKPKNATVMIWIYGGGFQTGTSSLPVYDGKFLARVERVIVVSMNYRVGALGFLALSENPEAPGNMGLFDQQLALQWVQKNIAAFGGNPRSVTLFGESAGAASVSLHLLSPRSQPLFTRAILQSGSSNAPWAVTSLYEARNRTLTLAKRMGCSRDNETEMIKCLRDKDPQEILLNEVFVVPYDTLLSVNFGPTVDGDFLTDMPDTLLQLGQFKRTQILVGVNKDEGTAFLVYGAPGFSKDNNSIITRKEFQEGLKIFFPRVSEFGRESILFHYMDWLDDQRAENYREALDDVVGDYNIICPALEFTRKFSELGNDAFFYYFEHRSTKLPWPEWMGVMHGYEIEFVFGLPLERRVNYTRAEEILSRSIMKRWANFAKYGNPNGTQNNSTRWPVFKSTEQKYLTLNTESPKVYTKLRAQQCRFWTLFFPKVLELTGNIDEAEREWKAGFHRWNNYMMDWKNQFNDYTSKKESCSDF
Chain of Carbonic anhydrase 5B, mitochondrial (Homo sapiens) (Q9Y2D0 whole entry): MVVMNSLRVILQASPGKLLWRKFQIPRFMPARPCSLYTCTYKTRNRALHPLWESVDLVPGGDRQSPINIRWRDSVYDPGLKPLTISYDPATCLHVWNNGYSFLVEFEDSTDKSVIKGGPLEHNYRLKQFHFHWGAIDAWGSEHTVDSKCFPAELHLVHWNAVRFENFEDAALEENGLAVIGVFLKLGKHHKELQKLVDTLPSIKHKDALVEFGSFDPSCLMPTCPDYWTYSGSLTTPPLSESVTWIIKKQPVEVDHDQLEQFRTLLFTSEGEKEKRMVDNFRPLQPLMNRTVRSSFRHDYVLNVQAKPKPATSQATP
Chain of Acetylcholinesterase (O42275 whole entry): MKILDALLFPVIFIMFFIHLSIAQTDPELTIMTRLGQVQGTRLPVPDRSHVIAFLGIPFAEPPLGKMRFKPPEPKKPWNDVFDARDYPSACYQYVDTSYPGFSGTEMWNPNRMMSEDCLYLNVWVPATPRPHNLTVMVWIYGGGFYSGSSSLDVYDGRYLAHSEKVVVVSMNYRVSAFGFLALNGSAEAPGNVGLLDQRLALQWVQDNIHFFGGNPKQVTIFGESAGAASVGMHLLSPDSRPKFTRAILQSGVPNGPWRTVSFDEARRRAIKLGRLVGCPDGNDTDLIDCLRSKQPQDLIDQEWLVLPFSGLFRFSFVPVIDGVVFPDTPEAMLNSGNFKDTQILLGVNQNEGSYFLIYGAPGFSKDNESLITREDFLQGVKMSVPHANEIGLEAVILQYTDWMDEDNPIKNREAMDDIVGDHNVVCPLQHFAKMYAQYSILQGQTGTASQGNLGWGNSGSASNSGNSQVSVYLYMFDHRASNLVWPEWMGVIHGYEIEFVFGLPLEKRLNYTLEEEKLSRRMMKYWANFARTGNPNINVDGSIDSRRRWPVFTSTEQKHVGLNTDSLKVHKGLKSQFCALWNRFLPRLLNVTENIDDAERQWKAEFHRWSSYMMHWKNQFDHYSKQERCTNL
Description for Acetylcholinesterase: Inhibition of electric eel AChE by microplate reader based analysis

Consider `COC(=O)[C@H](Cc1c[nH]cn1)NCCCCCCNc1c2c(nc3ccccc13)CCCC2`, for which the result with Mus musculus [1], in the test with Mus musculus [2], in the test with Mus musculus [6] and in the test on Mus musculus [8] was inactive. For the same compound, the KA is 0.918 µM in [3] (filed as activator); 76.9 nM in test [4] (filed as activator); 893 nM in [7] (filed as activator); 98 nM in [9] (filed as activator); 266 nM in [11] (filed as activator). Moreover, the outcome with Mus musculus [5] and with Mus musculus [10] was Active. Further, the half-maximal inhibitory concentration (IC50) is 72.1 nM against Acetylcholinesterase and 4.2 nM on Cholinesterase.

For the compound `N[C@H](Cc1ccccc1)C(=O)O` [D-PHENYLALANINE], the Activity_index with Mus musculus [12] came out at 0.373; in the test on Mus musculus [14], 0.205. Also, the outcome in the test on Mus musculus [13] and in the test with Mus musculus [16] was inactive. In addition, the outcome in the test on Mus musculus [15] and with Mus musculus [17] was Active.

Consider `N[C@@H](Cc1ccccc1)C(=O)NCCCCCNc1c2c(nc3ccccc13)CCCC2`, for which the outcome in the test with Mus musculus [1], with Mus musculus [2], with Mus musculus [6] and in the test with Mus musculus [8] was inactive. Moreover, the KA in test [3] (filed as activator) stood at 2.61 µM; in test [4] (filed as activator) it was 93.4 nM; in test [7] (filed as activator), 1320 nM; in test [9] (filed as activator) it was 192 nM; in test [11] (filed as activator), 782 nM. Also, the outcome in the test on Mus musculus [5] and with Mus musculus [10] was Active. The results for the IC50 on Acetylcholinesterase and at Cholinesterase were 7.4 nM and 1.9 nM, respectively.

In the case of `N[C@@H](CCCCNC(=O)OCc1ccccc1)C(=O)NCCCNc1c2c(nc3ccccc13)CCCC2`, the KA in test [3] (filed as activator) came out at 8.52 µM; in test [4] (filed as activator) it was 1200 nM; in test [7] (filed as activator), 4950 nM; in test [9] (filed as activator), 3080 nM; in test [11] (filed as activator) it was 2080 nM. Besides, the values for the concentration for half-maximal inhibition (IC50) against Acetylcholinesterase and against Cholinesterase were 110 nM and 0.3 nM, respectively. In addition, the result in the test with Mus musculus [18], in the test with Mus musculus [19], with Mus musculus [20] and with Mus musculus [21] was inactive.

In the case of `N[C@@H](Cc1c[nH]cn1)C(=O)NCCCCCNc1c2c(nc3ccccc13)CCCC2`, the result in the test with Mus musculus [1], in the test on Mus musculus [2], in the test with Mus musculus [6] and with Mus musculus [8] was inactive. For the same compound, the KA in test [3] (filed as activator) stood at 0.757 µM; in [4] (filed as activator), 65.1 nM; in test [7] (filed as activator), 1010 nM; in [9] (filed as activator) it was 96.4 nM; in [11] (filed as activator), 565 nM. The result with Mus musculus [5] and in the test on Mus musculus [10] was Active. In addition, the IC50 against Acetylcholinesterase was determined as 29.8 nM; at Cholinesterase it was 6.8 nM.

For `COC(=O)[C@H](CCCCNC(=O)OCc1ccccc1)NCCCCCNc1c2c(nc3ccccc13)CCCC2`, the KA in [3] (filed as activator) came out at 19 µM; in [4] (filed as activator) it was 1990 nM; in [7] (filed as activator), 1400 nM; in test [9] (filed as activator), 1370 nM; in test [11] (filed as activator), 3300 nM. In addition, the values for the IC50 at Acetylcholinesterase and on Cholinesterase were 12.4 nM and 0.073 nM, respectively.

For the compound `CC(C)(C)OC(=O)N[C@@H](CCCCNC(=O)OCc1ccccc1)C(=O)NCCCCCNc1c2c(nc3ccccc13)CCCC2`, the KA was > 50 µM in test [3]; > 50000 nM in [4]; > 50000 nM in [7]; > 50000 nM in test [9]; > 50000 nM in test [11]. Also, the IC50 is 299 nM against Acetylcholinesterase and 0.34 nM against Cholinesterase.

Take `CC(C)(C)OC(=O)N[C@@H](Cc1cn(C(=O)OC(C)(C)C)cn1)C(=O)NCCCCNc1c2c(nc3ccccc13)CCCC2`: the KA in test [3] was > 50 µM; in test [4] (filed as activator), 12400 nM; in test [7], > 50000 nM; in test [9], > 50000 nM; in [11], > 50000 nM. The IC50 was 122 nM against Acetylcholinesterase and 0.064 nM on Cholinesterase.

Source of the values: ChEMBL document CHEMBL5579900, “Enhanced Recognition Memory through Dual Modulation of Brain Carbonic Anhydrases and Cholinesterases” (J Med Chem, 2024).
